Source: patent publication US3981865A, “Bis-type penicillins and process for producing the same” (Toyama Chemical Co., Ltd., priority 1974, dated 1976)
≈ marks a conversion by molar mass, not a printed value.

What was measured:
Escherchia coli NIHJ = experiment: MIC by plate method, standard strains; type: cell-based; settings: Heart infusion agar pH 7.4, inoculum 10^4 cells per plate (10^6 cells/ml.), unit assumed
Description: (§1) The minimum inhibitory concentration (MIC) was determined by the plate method disclosed in "Chemotherapy" (Japan), Vol. 16, (1968), pages 98 - 99. The culture medium used was a Heart infusion agar (pH 7.4). The number of the cells per plate used in the inoculum was 10^4 (10^6 cells/ml.).

Klebsiella pneumoniae = experiment: MIC by plate method, standard strains; type: cell-based; settings: Heart infusion agar pH 7.4, inoculum 10^4 cells per plate (10^6 cells/ml.), unit assumed
Description: as §1

Proteus vulgaris 3027 = experiment: MIC by plate method, standard strains; type: cell-based; settings: Heart infusion agar pH 7.4, inoculum 10^4 cells per plate (10^6 cells/ml.), unit assumed
Description: as §1

[1] = test system: Pseudomonas aeruginosa I.F.O.; experiment: MIC by plate method, standard strains; type: cell-based; settings: Heart infusion agar pH 7.4, inoculum 10^4 cells per plate (10^6 cells/ml.), unit assumed
Description: as §1

[2] = test system: Staphylococcus aureus 209P; experiment: MIC by plate method, standard strains; type: cell-based; settings: Heart infusion agar pH 7.4, inoculum 10^4 cells per plate (10^6 cells/ml.), unit assumed
Description: as §1

[3] = test system: Pseudomonas aeruginosa clinical isolates; experiment: MIC by plate method, clinical isolates of bacteria; type: cell-based; settings: for MIC Pseudomonas aeruginosa GN 82: clinical isolate GN 82, Heart infusion agar pH 7.4, unit assumed; for MIC Pseudomonas aeruginosa GN 163: clinical isolate GN 163, Heart infusion agar pH 7.4, unit assumed; for MIC Pseudomonas aeruginosa GN 221: clinical isolate GN 221, Heart infusion agar pH 7.4, unit assumed; for MIC Pseudomonas aeruginosa GN 264: clinical isolate GN 264, Heart infusion agar pH 7.4, unit assumed; for MIC Pseudomonas aeruginosa GN 376: clinical isolate GN 376, Heart infusion agar pH 7.4, unit assumed; for MIC Pseudomonas aeruginosa GN 383: clinical isolate GN 383, Heart infusion agar pH 7.4, unit assumed; for MIC Pseudomonas aeruginosa GN 1035: clinical isolate GN 1035, Heart infusion agar pH 7.4, unit assumed; for MIC Pseudomonas aeruginosa GN 1091: clinical isolate GN 1091, Heart infusion agar pH 7.4, unit assumed; for MIC Pseudomonas aeruginosa GN 2565: clinical isolate GN 2565, Heart infusion agar pH 7.4, unit assumed; for MIC Pseudomonas aeruginosa GN 2987: clinical isolate GN 2987, Heart infusion agar pH 7.4, unit assumed; for MIC Pseudomonas aeruginosa S-2: clinical isolate S-2, Heart infusion agar pH 7.4, unit assumed; for MIC Pseudomonas aeruginosa S-3: clinical isolate S-3, Heart infusion agar pH 7.4, unit assumed; for MIC Pseudomonas aeruginosa S-4: clinical isolate S-4, Heart infusion agar pH 7.4, unit assumed
Description: as §1
MIC was determined in the same manner as in the preceding paragraph (1).

[4] = test system: β-lactamase from Escherchia coli 33; experiment: Resistant activity against β-lactamase, iodometric assay; type: biochemical; settings: β-lactamase hydrolysis, relative to Potassium Penicillin G = 100
Description: (§2) 3. Resistant activity against β-lactamase, Pseudomonas aeruginosa GN 238 and Escherchia coli 33:
(§3) The resistant activity of each compound against β-lactamase was measured in the manner described below.
(§4) β-Lactamase was prepared from Pseudomonas aeruginosa GN 238 and Escherchia coli 33. This microorganism was cultured in 100 ml. of a medium containing 2 g. of yeast extract, 10 g. of polypeptone, 2 g. of glucose, 7 g. of disodium hydrogen phosphate, 2 g. of potassium dihydrogen phosphate, 1.2 g. of ammonium sulfate and 0.4 g. of magnesium sulfate, per liter, in a 500-ml. Erlenmeyer flask for 6 hrs. at 37°C with shaking. The resulting cells were collected by centrifugation (5,000 r.p.m. × 10 min.), washed three times with 0.1 M phosphate buffer (pH 7.0). Subsequently, the cells were subjected to sonication (20 KHz, 20 min.) and then centrifuged at 15,000 r.p.m. for 60 min. By using the supernatant of enzyme fluid, the resistance of each compound against β-lactamase was determined by the iodometric assay method. Each numeral shown in Table 3 is a relative activity value calculated by assuming as 100 the activity of the control Potassium Penicillin G.

[5] = test system: β-lactamase from Pseudomonas aeruginosa GN 238; experiment: as above; type: biochemical; settings: β-lactamase hydrolysis, relative to Potassium Penicillin G = 100
Description: as §2, §3, §4

[6] = Acute toxicity LD50 i.v. in mouse; settings: in vivo, iv; i.v. in mouse having a weight of 19 ± 1 g.
Source text: The present penicillins have generally low toxicity.

| SMILES | MIC Escherchia coli NIHJ (Escherchia coli NIHJ) | MIC Klebsiella pneumoniae (Klebsiella pneumoniae) | MIC Proteus vulgaris 3027 (Proteus vulgaris 3027) | MIC Pseudomonas aeruginosa I.F.O. [1] | MIC Staphylococcus aureus 209P [2] | Relative activity (%) Escherchia coli 33 [4] | Relative activity (%) Pseudomonas aeruginosa GN238 [5] | other results |
| --- | --- | --- | --- | --- | --- | --- | --- | --- |
| CC1(C)S[C@@H]2[C@H](NC(=O)[C@H](N)c3ccccc3)C(=O)N2[C@H]1C(=O)O [Sodium Ampicillin, reference compound] | < 1.57 µg/mL | 50 µg/mL | > 200 µg/mL | > 200 µg/mL | < 1.57 µg/mL |  |  | MIC Pseudomonas aeruginosa GN 82 [3]: > 200 µg/mL; MIC Pseudomonas aeruginosa GN 163 [3]: > 200 µg/mL; MIC Pseudomonas aeruginosa GN 221 [3]: > 200 µg/mL; MIC Pseudomonas aeruginosa GN 264 [3]: > 200 µg/mL; MIC Pseudomonas aeruginosa GN 376 [3]: > 200 µg/mL; MIC Pseudomonas aeruginosa GN 383 [3]: > 200 µg/mL; MIC Pseudomonas aeruginosa GN 1035 [3]: > 200 µg/mL; MIC Pseudomonas aeruginosa GN 1091 [3]: > 200 µg/mL; MIC Pseudomonas aeruginosa GN 2565 [3]: > 200 µg/mL; MIC Pseudomonas aeruginosa GN 2987 [3]: > 200 µg/mL; MIC Pseudomonas aeruginosa S-2 [3]: > 200 µg/mL; MIC Pseudomonas aeruginosa S-3 [3]: > 200 µg/mL; MIC Pseudomonas aeruginosa S-4 [3]: > 200 µg/mL |
| CC1(C)S[C@@H]2[C@H](NC(=O)[C@H](NC(=O)NC(=O)CCCCCCCCCCC(=O)NC(=O)N[C@@H](C(=O)N[C@@H]3C(=O)N4[C@@H]3SC(C)(C)[C@@H]4C(=O)O)c3ccccc3)c3ccccc3)C(=O)N2[C@H]1C(=O)O [compound 5, N,n'-dodecanedioyl-bis[6-(D(-)-α-ureidophenylacetamido)penicillanic acid]] | 3.13 µg/mL (≈ 3.2 µM) | 12.5 µg/mL (≈ 12.8 µM) | 100 µg/mL (≈ 102 µM) | 50 µg/mL (≈ 51.1 µM) | < 1.57 µg/mL |  |  |  |
| CC1(C)S[C@@H]2[C@H](NC(=O)[C@H](NC(=O)NC(=O)COc3ccc(OCC(=O)NC(=O)N[C@@H](C(=O)N[C@@H]4C(=O)N5[C@@H]4SC(C)(C)[C@@H]5C(=O)O)c4ccccc4)cc3)c3ccccc3)C(=O)N2[C@H]1C(=O)O [compound 7] | 6.25 µg/mL (≈ 6.41 µM) | 25 µg/mL (≈ 25.6 µM) | 12.5 µg/mL (≈ 12.8 µM) | 25 µg/mL (≈ 25.6 µM) | < 1.57 µg/mL |  |  |  |
| CC1(C)S[C@@H]2[C@H](NC(=O)[C@H](NC(=O)NC(=O)c3ccc(CCc4ccc(C(=O)NC(=O)N[C@@H](C(=O)N[C@@H]5C(=O)N6[C@@H]5SC(C)(C)[C@@H]6C(=O)O)c5ccccc5)cc4)cc3)c3ccccc3)C(=O)N2[C@H]1C(=O)O [compound 8] | < 1.57 µg/mL | 6.25 µg/mL (≈ 6.13 µM) | 6.25 µg/mL (≈ 6.13 µM) | 50 µg/mL (≈ 49.1 µM) | < 1.57 µg/mL |  |  |  |
| CC1(C)S[C@@H]2[C@H](NC(=O)[C@H](NC(=O)NC(=O)c3ccc4cc(C(=O)NC(=O)N[C@@H](C(=O)N[C@@H]5C(=O)N6[C@@H]5SC(C)(C)[C@@H]6C(=O)O)c5ccccc5)ccc4c3)c3ccccc3)C(=O)N2[C@H]1C(=O)O [compound 2] | < 1.57 µg/mL | 3.13 µg/mL (≈ 3.24 µM) | 3.15 µg/mL (≈ 3.26 µM) | 25 µg/mL (≈ 25.9 µM) | < 1.57 µg/mL |  |  |  |
| CC1(C)S[C@@H]2[C@H](NC(=O)[C@H](NC(=O)NC(=O)CCC(=O)NC(=O)N[C@@H](C(=O)N[C@@H]3C(=O)N4[C@@H]3SC(C)(C)[C@@H]4C(=O)O)c3ccccc3)c3ccccc3)C(=O)N2[C@H]1C(=O)O [Compound No. 3, N,N'-succinyl-bis[6-(D(-)-α-ureidophenylacetamido)penicillanic acid]] | 12.5 µg/mL (≈ 14.4 µM) | 100 µg/mL (≈ 115 µM) | 12.5 µg/mL (≈ 14.4 µM) | 25 µg/mL (≈ 28.8 µM) | < 1.57 µg/mL | 3% | 5% | MIC Pseudomonas aeruginosa GN 82 [3]: 12.5 µg/mL (≈ 14.4 µM); MIC Pseudomonas aeruginosa GN 163 [3]: 25 µg/mL (≈ 28.8 µM); MIC Pseudomonas aeruginosa GN 221 [3]: 25 µg/mL (≈ 28.8 µM); MIC Pseudomonas aeruginosa GN 264 [3]: 50 µg/mL (≈ 57.7 µM); MIC Pseudomonas aeruginosa GN 376 [3]: 25 µg/mL (≈ 28.8 µM); MIC Pseudomonas aeruginosa GN 383 [3]: 50 µg/mL (≈ 57.7 µM); MIC Pseudomonas aeruginosa GN 1035 [3]: 50 µg/mL (≈ 57.7 µM); MIC Pseudomonas aeruginosa GN 1091 [3]: 25 µg/mL (≈ 28.8 µM); MIC Pseudomonas aeruginosa GN 2565 [3]: 25 µg/mL (≈ 28.8 µM); MIC Pseudomonas aeruginosa GN 2987 [3]: 25 µg/mL (≈ 28.8 µM); MIC Pseudomonas aeruginosa S-2 [3]: 25 µg/mL (≈ 28.8 µM); MIC Pseudomonas aeruginosa S-3 [3]: 25 µg/mL (≈ 28.8 µM); MIC Pseudomonas aeruginosa S-4 [3]: 25 µg/mL (≈ 28.8 µM); LD50 [6]: > 3000 mg/kg |
| CC1(C)S[C@@H]2[C@H](NC(=O)Cc3ccccc3)C(=O)N2[C@H]1C(=O)O [Potassium Penicillin G, reference compound] |  |  |  |  |  | 100% | 100% |  |
| CC1(C)S[C@@H]2[C@H](NC(=O)[C@H](NC(=O)NC(=O)CCCCCCCCCCCC(=O)NC(=O)N[C@@H](C(=O)N[C@@H]3C(=O)N4[C@@H]3SC(C)(C)[C@@H]4C(=O)O)c3ccccc3)c3ccccc3)C(=O)N2[C@H]1C(=O)O [Compound No. 6, N,n'-tridecanedioyl-bis[6-(D(-)-α-ureidophenylacetamido)penicillanic acid]] | 3.13 µg/mL (≈ 3.15 µM) | 12.5 µg/mL (≈ 12.6 µM) | 25 µg/mL (≈ 25.2 µM) | 25 µg/mL (≈ 25.2 µM) | < 1.57 µg/mL | < 1% | < 1% |  |
| CC1(C)S[C@@H]2[C@H](NC(=O)[C@H](NC(=O)NC(=O)CCCCCCCCC(=O)NC(=O)N[C@@H](C(=O)N[C@@H]3C(=O)N4[C@@H]3SC(C)(C)[C@@H]4C(=O)O)c3ccccc3)c3ccccc3)C(=O)N2[C@H]1C(=O)O [Compound No. 4, N,N'-sebacoyl-bis[6-(D(-)-α-ureidophenylacetamido)penicillanic acid]] | 3.13 µg/mL (≈ 3.29 µM) | 25 µg/mL (≈ 26.3 µM) | 25 µg/mL (≈ 26.3 µM) | 50 µg/mL (≈ 52.6 µM) | < 1.57 µg/mL | 8% | 12% |  |
| CC1(C)S[C@@H]2[C@H](NC(=O)[C@H](NC(=O)NC(=O)c3ccc(C(=O)c4ccc(C(=O)NC(=O)N[C@@H](C(=O)N[C@@H]5C(=O)N6[C@@H]5SC(C)(C)[C@@H]6C(=O)O)c5ccccc5)cc4)cc3)c3ccccc3)C(=O)N2[C@H]1C(=O)O [compound 9] | 3.13 µg/mL (≈ 3.07 µM) | 12.5 µg/mL (≈ 12.3 µM) | 12.5 µg/mL (≈ 12.3 µM) | 25 µg/mL (≈ 24.5 µM) | < 1.57 µg/mL |  |  |  |
| CC1(C)S[C@@H]2[C@H](NC(=O)[C@H](NC(=O)NC(=O)c3ccc(C(=O)NC(=O)N[C@@H](C(=O)N[C@@H]4C(=O)N5[C@@H]4SC(C)(C)[C@@H]5C(=O)O)c4ccccc4)cc3)c3ccccc3)C(=O)N2[C@H]1C(=O)O [Compound No. 1] | 3.13 µg/mL (≈ 3.42 µM) | 25 µg/mL (≈ 27.3 µM) | 25 µg/mL (≈ 27.3 µM) | 12.5 µg/mL (≈ 13.7 µM) | < 1.57 µg/mL | 12% | 18% |  |
